# Experimental data as given in patent US20220288060A1, “Treatment of Opioid Withdrawal” (Kinoxis Therapeutics Pty Ltd, priority 2019, published 2022).
# “And” between values parts separate entries of the source, which are not always exact repeats. Equal entries are not always repeated. “Also recorded” adds a separate entry of the source.
# Columns and labels:
# C57BL/6 mice [1] = test: Open field locomotor activity test (Experiment 1.1); assay type: in vivo, mouse; settings: 5 mg/kg i.p.; time post dose 75-80; individual mice 7-12
# [2] = test system: naloxone precipitated oxycodone withdrawal in C57BL/6 mice; test: Naloxone precipitated oxycodone withdrawal-induced jumping, two salt forms (Example 4, Experiment 2.1); assay type: in vivo, mouse; settings: 7.3 mg/kg FBE i.p.; for Oxycodone withdrawal-induced jumping vs OXY_VEH: CMPD1-PO4 p<0.01, CMPD1-2HCL p<0.001; for Withdrawal-induced jumping, comparison of the two salt forms: OXY_CMPD1-PO4 vs OXY_2 HCL p=0.901
# [3] = test system: naloxone precipitated oxycodone withdrawal in C57BL/6 mice; test: Naloxone precipitated oxycodone withdrawal: jumping and paw tremors (Experiment 1.2); assay type: in vivo, mouse; settings: for Number of jumps for each mouse in the 30 min test session / Total duration of paw tremors for each mouse in the 30 minute test session: oxycodone condition mice, individual mice
# Experimental: Adult male C57BL/6 mice (N=40) were allocated to one of five conditions (n=8 per condition):
# (§1) Mice in the oxycodone conditions received i.p. injections of oxycodone for 5 days according to the schedule and doses set out in Table 1. The morning and afternoon doses were separated by 7 h. Mice in the vehicle condition received injections of vehicle saline instead of oxycodone. One-hour-and-forty-five minutes after the morning injection on day 5, mice were administered their i.p. dose of CMPD1-2HCL. Fifteen minutes later they received an i.p. injection of 10 mg/kg naloxone (oxycodone groups) or saline (vehicle group), and proceeded immediately to testing.
# Testing involved placing mice individually into a 20 (l)×20 (w)×30 (h) cm arena for 30 min. Sessions were captured via a side view high speed (120 fps), high resolution (4K) camera. Number of jumps and total duration of paw tremors were scored from the videos by an experienced experimenter blind to conditions.
# Data were analysed by SPSS using oneway ANOVA and planned contrasts.
# [4] = test system: c-fos protein expression in the brain; test: Naloxone-precipitated opioid withdrawal-induced c-fos protein expression in the brain (Example 2); assay type: in vivo, mouse; settings: 10 mg/kg i.p.; 8 brain regions; 75 minutes after naloxone
# Experimental: In this example, the ability of Compound 1 to inhibit naloxone-precipitated opioid withdrawal-induced c-fos protein expression in the brain was studied. C-fos is a protein marker of neural activation. Compound 1 was administered in dihydrochloride salt form (CMPD1-2HCL).
# N=40 male C57BL/6 mice were assigned to one of the following four conditions:
# Mice in the oxycodone (OXY) conditions received i.p. injections of oxycodone for 9 days with increasing doses of 9, 17.8, 23.7 and 33 mg/kg (twice daily on days 1-8, with dose increasing every other day). The morning and afternoon doses were separated by 7 h. Mice in the vehicle condition (VEH) received injections of vehicle saline instead of oxycodone. One-hour-and-forty-five minutes after the morning injection on day 9, mice were administered their i.p. dose of CMPD1-2HCL (10 mg/kg at an injection volume of […]) or VEH. Fifteen minutes later they received an i.p. injection of 10 mg/kg naloxone (OXY groups) or saline (VEH groups) to precipitate withdrawal.
# 75 minutes after their naloxone or saline injection, mice were euthanised by sodium pentobarbitone overdose, and intracardiac puncture perfusion fixation was performed with 4% paraformaldehyde, and brains were then collected for immunohistochemical processing.
# Data were analysed by SPSS using two-way ANOVA and planned contrasts.
# C57BL/6 mice [5] = test: Open field locomotor activity test (Experiment 1.1); assay type: in vivo, mouse
# Experimental: N=18 adult male C57BL/6 mice received either 0, 5 or 10 mg/kg CMPD1-2HCL (i.p.; n=6 per condition). Fifteen minutes after receiving their i.p. injection of CMPD1-2HCL mice were placed individually into a novel 40 (l)×40 (w)×40 (h) cm locomotor testing arena. Sessions were captured by overhead cameras and videos were analysed by using the automated behaviour tracking software CleverSys Topscan (CleverSys, Virginia, USA), which provided the distance travelled by each mouse in each 5 min time bin over the 60 minute locomotor testing session. Data were analysed by SPSS using mixed model ANOVA.
# [6] = test system: naloxone precipitated oxycodone withdrawal in C57BL/6 mice; test: Gastrointestinal symptoms of opioid withdrawal: fecal boli and diarrhea (Example 3); assay type: in vivo, mouse; settings: 10 mg/kg i.p.
# Experimental: In this example, the ability of CMPD1-2HCL to inhibit the gastrointestinal symptoms of opioid withdrawal was assessed using a murine model.
# Adult male C57BL/6 mice ([…]) were allocated to one of four conditions (n=10 per condition):
# as §1, with “conditions (OXY)” for “conditions”, “7.” for “1.”, “CMPD1-2HCL (10 mg/kg).” for “CMPD1-2HCL.”
# Testing involved placing mice individually into a 20 (l)×20 (w)×30 (h) cm arena for 30 min. The number of fecal boli were counted at the end of the session and whether or not the mouse had diarrhea.
# Data were analysed using ANOVA and planned contrasts for fecal boli and Fisher's exact test for diarrhea.
# [7] = clinical trials; cited from earlier work
smiles,measurement,setting,value
Cl.Cl.Cn1ncc2c1Nc1ccccc1NC2 [CMPD1-2HCL],Distance travelled during time bin,C57BL/6 mice [1],3441.42 mm and 8422.46 mm and 11136.92 mm and 9156.71 mm and 2402.89 mm and 1364.63 mm
same,Oxycodone withdrawal-induced jumping vs OXY_VEH,[2],significantly inhibited
same,"Withdrawal-induced jumping, comparison of the two salt forms",[2],did not differ significantly
same,Jumping relative to mice not undergoing oxycodone withdrawal (VEH 0CMPD1),"[3]; 2.5, 5, 10 mg/kg i.p., p<0.001, p<0.001, p=0.011",still showed elevated jumping
same,Oxycodone withdrawal-induced jumping vs OXCD 0CMPD1,"[3]; 2.5, 5, 10 mg/kg i.p., p=0.023, p=0.018, p<0.001",significantly inhibited
same,Dysphoric and somatic symptoms (jumping and paw tremors) of oxycodone withdrawal,"[3]; 2.5-10 mg/kg i.p., conclusion",dose dependently inhibited
same,Paw tremors relative to mice not undergoing oxycodone withdrawal (VEH 0CMPD1),"[3]; 5 and 10 mg/kg i.p., p=0.204, p=0.4 (2.5 mg/kg p<0.01)",no longer had significantly elevated paw tremors
same,Oxycodone withdrawal-induced paw tremors vs OXCD 0CMPD1,"[3]; highest dose 10 mg/kg i.p., p=0.033 (2.5 mg/kg p=0.898; 5 mg/kg p=0.083)",significantly inhibited
same,Number of jumps for each mouse in the 30 min test session,"[3]; 2.5 mg/kg i.p., 2.5 mg/kg",86 and 52 and 58 and 50 (2×) and 31 and 92 and 68
same,Total duration of paw tremors for each mouse in the 30 minute test session,"[3]; 2.5 mg/kg i.p., 2.5 mg/kg",12.4 s and 2.3 s and 78.4 s and 48 s and 27.1 s and 20.4 s and 0.2 s and 0.4 s
same,Number of jumps for each mouse in the 30 min test session,"[3]; 5 mg/kg i.p., 5 mg/kg",51 and 35 and 61 and 48 (2×) and 30 and 136 and 67
same,Total duration of paw tremors for each mouse in the 30 minute test session,"[3]; 5 mg/kg i.p., 5 mg/kg",8.2 seconds and 21.4 seconds and 3 seconds (2×) and 18.5 seconds and 2.1 seconds and 3.2 seconds and 17 seconds
same,Number of jumps for each mouse in the 30 min test session,"[3]; 10 mg/kg i.p., 10 mg/kg",25 and 120 and 17 and 33 (2×) and 26 and 51 and 34
same,Total duration of paw tremors for each mouse in the 30 minute test session,"[3]; 10 mg/kg i.p., 10 mg/kg",9.9 seconds and 0 seconds (3×) and 6 seconds and 21.5 seconds and 3.3 seconds and 9.6 seconds
same,Withdrawal induced neural activation (c-fos positive cells),[4],significantly inhibited withdrawal induced neural activation
same,Distance travelled during time bin,"C57BL/6 mice [5]; 5 mg/kg i.p., time post dose 15-20 (5 min bin), individual mice 7-12",15043.46 mm and 20271.67 mm and 23636.81 mm and 18238.34 mm and 16051.42 mm and 16442.58 mm
same,Distance travelled during time bin,"C57BL/6 mice [5]; 5 mg/kg i.p., time post dose 20-25, individual mice 7-12",20386.17 mm and 13996.02 mm and 16449.1 mm and 11919.46 mm and 11756.3 mm and 10974.55 mm
same,Distance travelled during time bin,"C57BL/6 mice [5]; 5 mg/kg i.p., time post dose 25-30, individual mice 7-12",11089.15 mm and 11425.88 mm and 11764.23 mm and 8462.92 mm and 10127.95 mm and 8553.13 mm
same,Distance travelled during time bin,"C57BL/6 mice [5]; 5 mg/kg i.p., time post dose 30-35, individual mice 7-12",13221.16 mm and 7779.42 mm and 11134.18 mm and 8664.63 mm and 9823.55 mm and 4905.54 mm
same,Distance travelled during time bin,"C57BL/6 mice [5]; 5 mg/kg i.p., time post dose 35-40, individual mice 7-12",15282.34 mm and 6791.58 mm and 8208.55 mm and 11776.57 mm and 10597.55 mm and 5280.25 mm
same,Distance travelled during time bin,"C57BL/6 mice [5]; 5 mg/kg i.p., time post dose 40-45, individual mice 7-12",7068.09 mm and 9050.59 mm and 7493.64 mm and 9121.74 mm and 5308.25 mm and 6050.2 mm
same,Distance travelled during time bin,"C57BL/6 mice [5]; 5 mg/kg i.p., time post dose 45-50, individual mice 7-12",5367.28 mm and 6712.87 mm and 5587.1 mm and 5518.04 mm and 9993.79 mm and 5466.54 mm
same,Distance travelled during time bin,"C57BL/6 mice [5]; 5 mg/kg i.p., time post dose 50-55, individual mice 7-12",945.3 mm and 7073.77 mm and 10568.53 mm and 9463.89 mm and 5234.55 mm and 6665.74 mm
same,Distance travelled during time bin,"C57BL/6 mice [5]; 5 mg/kg i.p., time post dose 55-60, individual mice 7-12",3362.81 mm and 8088.81 mm and 11051.63 mm and 11843.34 mm and 6386.55 mm and 4645.85 mm
same,Distance travelled during time bin,"C57BL/6 mice [5]; 5 mg/kg i.p., time post dose 60-65, individual mice 7-12",6133.83 mm and 10365.45 mm and 10059.86 mm and 11154.54 mm and 8969.03 mm and 4893.44 mm
same,Distance travelled during time bin,"C57BL/6 mice [5]; 5 mg/kg i.p., time post dose 65-70, individual mice 7-12",5268.88 mm and 4809.55 mm and 6121.25 mm and 4100.88 mm and 9397.98 mm and 4757.22 mm
same,Effect on locomotor activity (distance travelled),"C57BL/6 mice [5]; 5 and 10 mg/kg i.p., main effect of dose p=0.392, time by dose interaction p=0.143",does not significantly impact locomotor activity; also recorded: does not supress locomotor activity
same,Distance travelled during time bin,"C57BL/6 mice [5]; Table 3, 5 mg/kg, i.p., time post dose 35-40, individual mice 13-18",11756.13 mm and 8046.38 mm (2×) and 12860.87 mm and 13271.28 mm and 10054.85 mm
same,Distance travelled during time bin,"C57BL/6 mice [5]; Table 3, 5 mg/kg, i.p., time post dose 40-45, individual mice 13-18",7682.41 mm and 2222.65 mm (2×) and 11152.11 mm and 12391.75 mm and 4683.51 mm
same,Distance travelled during time bin,"C57BL/6 mice [5]; Table 3, 5 mg/kg, i.p., time post dose 45-50, individual mice 13-18",11290.93 mm and 6482.48 mm (2×) and 10743.61 mm and 12658.5 mm and 8082.58 mm
same,Distance travelled during time bin,"C57BL/6 mice [5]; Table 3, 5 mg/kg, i.p., time post dose 55-60, individual mice 13-18",28970.94 mm and 12316.3 mm (2×) and 32680.43 mm and 27725.23 mm and 19894.04 mm
same,Distance travelled during time bin,"C57BL/6 mice [5]; Table 3, 5 mg/kg, i.p., time post dose 60-65, individual mice 13-18",17509.3 mm and 10864.14 mm (2×) and 28788.31 mm
same,Number of mice suffering from diarrhea,[6]; Fisher's exact test,inhibited
same,Amount of fecal boli produced during the 30 min session,[6]; p<0.001 vs opioid withdrawal,significantly inhibited
same,Proportion of mice suffering from diarrhea,"[6]; OXY condition, n=10, OXY, VEH 90%, VEH, VEH 0%",30%
Cn1ncc2c1Nc1ccccc1NC2.O=P(O)(O)O [CMPD1-PO4],Oxycodone withdrawal-induced jumping vs OXY_VEH,[2],significantly inhibited
same,"Withdrawal-induced jumping, comparison of the two salt forms",[2],did not differ significantly
CC(Oc1c(Cl)cccc1Cl)C1=NCCN1 (stereo not drawn) [lofexidine],Improvements in acute opioid withdrawal symptoms and treatment retention,[7],only modest improvements
same,Side effects,[7],"hypotension, bradycardia and insomnia"
